Test results: US20240218330A1, “COMPOSITIONS FOR IMPROVING THE TRANSDUCTION OF CELLS BY VIRAL VECTORS” (Ospedale San Raffaele S.r.l., priority 2021, published 2024)

Test system: unstimulated hHSPC
Test: lentiviral vector (LV) transduction of unstimulated HSPC, % GFP+ cells by flow cytometry
Type: cell-based, human
Conditions: for effect on transduction efficiency of quiescent HSPC: in presence of CsH, 4 h pre-exposure to single nucleoside or purine/pyrimidine mix, vs CsH only control, FIG. 3A-D; for LV transduction of unstimulated hHSPC vs DMSO control: FIG. 6D-E
Method: Cyclosporine H (Sigma-Aldrich) was resuspended and stored following the manufacturer's instructions. Where indicated CsH was added to the transduction medium at 8 μM concentration and washed out with the vector 16-20 hours later. dNTPs (NEB N1201AA) were added to the transduction medium where indicated at 10 uM concentration and washed out with the vector 16-20 hours later. dA (D8668), dC (D0776), dG (D0901) and dT (T1895) were all purchased from Sigma-Aldrich and resuspended and stored following the manufacturer's instructions. dNs mix, single dNs or combinations of dNs (500-1000 μM each) were added to the culture media 4 h-2 h before transduction and washed out with the vector 16-20 hours later. For dosage experiment 25 μM to 1000 μM concentrations of each dN was tested.
All cells were transduced at the indicated multiplicity of infection (MOI) as calculated by titration of vector stocks on 293T cells and expressed as transducing units (TU)/293T cell. For transduction, CB-derived HSPC were cultured in serum-free StemSpan medium supplemented with penicillin (100 IU/ml), streptomycin ([…]), 100 ng/ml recombinant human stem cell factor (rhSCF), 20 ng/ml recombinant human thrombopoietin (rhTPO), 100 ng/ml recombinant human Flt3 ligand (rhFlt3), and 20 ng/ml recombinant human IL6 (rhIL6) (all from Peprotech) 16 to 24 hours prior to transduction. Bone marrow and G-CSF mobilized peripheral blood CD34+ cells were cultured in CellGro medium (Cell Genix) supplemented with penicillin (100 IU/ml), streptomycin ([…]) and a cocktail of cytokines: 60 ng/ml IL-3, 100 ng/ml TPO, 300 ng/ml SCF, and 300 ng/ml FLT-3L (all from Cell Peprotech). HSPC were then transduced at a concentration of 1×10^6 cells per milliliter with the vector for 16 hours at the indicated multiplicity of infection (MOI), expressed as transducing units (TU)/293T cell, in the same medium. After transduction cells were washed and maintained in serum-free medium supplemented with cytokines as above until the reading of the percentage of positive cells by FACS, after which they were maintained in IMDM supplemented with 10% FBS, 25 ng/ml rhSCF, 5 ng/ml rhIL6-3, 25 ng/ml rhFlt3 and 5 ng/ml rhTPO. Unstimulated HSPC were transduced freshly isolated in StemSpan or CellGro medium supplemented with penicillin (100 IU/ml), streptomycin ([…]) for 16-24 hours and then maintained in presence of human cytokines and […] of the reverse-transcriptase inhibitor 3TC (from SIGMA) to avoid subsequent transduction due to cytokines stimulation. Unstimulated murine Lin-HSPC were transduced freshly isolated in serum-free StemSpan medium (StemCell Technologies) containing penicillin, streptomycin and glutamine at a concentration of 1×10^6 cells/ml for 16-20 hours and then maintained in presence of a combination of murine cytokines (20 ng/ml IL-3, 100 ng/ml SCF, 100 ng/ml Flt-3L, 50 ng/ml TPO all from Peprotech). MDM were transduced 7-10 days after differentiation. Activated T lymphocytes were transduced at a concentration of 10^6 cells/ml, after 3 days of stimulation with Dynabeads human T-activator CD3/CD28. Total CD14^− PBMC were transduced fresh at a concentration of 10^6 cells/ml for measurement of transduction.
GFP expression in transduced cells was measured 3-5 days post-transduction. Adherent MDM were detached by Tripsin-EDTA, washed and resuspended in PBS containing 2% fetal bovine serum (FBS). Cells grown in suspension were washed and resuspended in PBS containing 2% FBS. To measure HSPC subpopulation composition cells were harvested and incubated with anti-human receptor blocking antibodies for 15 min at 4° C. and then stained for 20 min at 4° C. with anti-human CD34 (RRID:AB_10827793), CD133 (RRID:AB_244346), CD90 (RRID:AB_559869) antibodies. […]

[1] = 7.5 μM Orotic Acid or 1 mM UMP alone, similarly to dNs alone
[2] = 7.5 μM Orotic Acid or 1 mM UMP combined with 8 μM CsH

| SMILES | effect on transduction efficiency of quiescent HSPC | LV transduction of unstimulated hHSPC vs DMSO control [1] | LV transduction of unstimulated hHSPC vs DMSO control [2] |
| --- | --- | --- | --- |
| Nc1nc2c(ncn2[C@H]2C[C@H](O)[C@@H](CO)O2)c(=O)[nH]1 [dG, Deoxyguanosine] | did not observe any effect | – | – |
| O=c1ccn([C@@H]2O[C@H](COP(=O)(O)O)[C@@H](O)[C@H]2O)c(=O)[nH]1 [UMP, uridine 5′-monophosphate] | – | increase in LV transduction | further significantly increased |
| Nc1ncnc2c1ncn2[C@H]1C[C@H](O)[C@@H](CO)O1 [dA, Deoxyadenosine] | did not observe any effect | – | – |
| Nc1ccn([C@H]2C[C@H](O)[C@@H](CO)O2)c(=O)n1 [dC, Deoxycytidine] | gene marking levels comparable to the combination of all dNs | – | – |
| O=C(O)c1cc(=O)[nH]c(=O)[nH]1 [OA, orotic acid] | – | increase in LV transduction | further significantly increased |
